In patent US10150766B2, “P2X7 modulators” (Jansssen Pharmaceutica NV, priority 2014, dated 2018):
Like-named read-outs stand apart in the source and are kept apart here.

Assays:
P2X7 [1] = molecular target: T1, P2X7 (Homo sapiens (Human), UniProt Q99572); assay: P2X7 antagonism in human whole blood, IL-1β release (LPS + Bz-ATP, ELISA); type: cell-based; conditions: LPS 30 ng/ml + Bz-ATP 1 mM
Protocol: (§1) P2X7 Antagonism in Human Peripheral Blood Mononuclear Cells (PBMCs) and Human Whole Blood.
(§2) Human blood was collected using a blood donor program. PBMCs were isolated from blood using a Ficoll density gradient technique. Briefly, blood was laid on Ficoll solution and centrifuged at ROOM TEMPERATURE for 20 minutes at 2000 rpm. The buffy layer (between red blood cells and plasma) was carefully collected by aspiration, washed with PBS and centrifuged again at 1500 rpm for 15 minutes. The resulting cell pellet was washed and plated on 96 well-plates for experiments. For the Human Whole Blood experiments, 150 μl of human blood was plated on 96 well-plates. Lipopolysaccharide (LPS) (30 ng/ml) was added to each well and incubated for 1 hour. Test compounds were then added and incubated for 30 minutes. The P2X7 agonist, 2′(3′)-O-(4-benzoylbenzoyl) adenosine 5′-triphosphate (Bz-ATP) was then added at a final concentration of 0.5 mM (PBMC) or 1 mM (blood). Cells were incubated for an additional 1.5 hours. At that point, supernatant was collected and stored for IL-1β assay using manufacturer's protocol for enzyme-linked immunosorbant assay (ELISA). Data was expressed as percent control, where control is defined as the difference in IL-1β release in LPS+Bz-ATP samples and LPS only samples. Data was plotted as response (% control) versus concentration to generate IC50 values. […] Data are analyzed and graphed on Graphpad Prism 5. For analysis, each concentration point is averaged from triplicate values and the averaged values are plotted on Graphpad Prism. The IC50 for each compound is then uploaded into 3DX.

rat P2X7 = rat P2X7 (Rattus norvegicus (Rat), UniProt Q64663); assay: P2X7 antagonism in recombinant rat P2X7 cells (column headed P2X7 Rat IC50); type: binding
Protocol: The in vitro affinity of the compounds of the invention for the rat and human P2X7 receptor was determined using a human peripheral blood mononuclear cells (PBMCs), a human whole blood assay, a Ca^2+ flux and radioligand binding assay in recombinant human P2X7 cells and recombinant rat P2X7 cells. […] The data represented in Tables 2 may represent a value from a single determination or when the experiment was run more than once, the data represents the average from between 2-12 runs.
P2X7 Antagonism in Recombinant Human P2X7 Cells or Recombinant Rat P2X7 Cells: […]

P2X7 [2] = molecular target: T1, P2X7; assay: Radioligand binding ([3H]A-804598) to membranes of human P2X7-1321N1 cells; conditions: human P2X7-1321N1 membranes, tracer tritiated A-804598, 1 hour at 4° C.
Protocol: P2X7 Antagonism in Recombinant Human P2X7 Cells or Recombinant Rat P2X7 Cells:
human or rat P2X7-1321N1 cells were collected and frozen @ −80° C. On the day of the experiment, cell membrane preparations were made according to standard published methods. […] The compound can be prepared as described in the literature. […] The assay was terminated by filtration (GF/B filters pre-soaked with 0.3% PEI) and washed with washing buffer (Tris-HCl 50 mM). The IC50 generated in the binding assay was corrected for tracer concentration and affinity of the tracer to derive at the affinity (Ki) of the test compounds. The data are presented in Table 2 under the headings: P2X7 human Ki (μM) and P2X7 rat Ki (μM). Data are analyzed and graphed on Graphpad Prism 5. For analysis, each concentration point is averaged from triplicate values and the averaged values are plotted on Graphpad Prism.

P2X7 [3] = molecular target: T1, P2X7; assay: P2X7 antagonism in human peripheral blood mononuclear cells (PBMCs), IL-1β release (LPS + Bz-ATP, ELISA); type: cell-based; conditions: P2X7, 10 μM test compound, LPS 30 ng/ml + Bz-ATP 0.5 mM, read-out: PBMC @10 μM (% control)
Protocol: as §1, §2

[4] = read-out: Human Whole Blood IC50

T1 sequence (Q99572 whole entry): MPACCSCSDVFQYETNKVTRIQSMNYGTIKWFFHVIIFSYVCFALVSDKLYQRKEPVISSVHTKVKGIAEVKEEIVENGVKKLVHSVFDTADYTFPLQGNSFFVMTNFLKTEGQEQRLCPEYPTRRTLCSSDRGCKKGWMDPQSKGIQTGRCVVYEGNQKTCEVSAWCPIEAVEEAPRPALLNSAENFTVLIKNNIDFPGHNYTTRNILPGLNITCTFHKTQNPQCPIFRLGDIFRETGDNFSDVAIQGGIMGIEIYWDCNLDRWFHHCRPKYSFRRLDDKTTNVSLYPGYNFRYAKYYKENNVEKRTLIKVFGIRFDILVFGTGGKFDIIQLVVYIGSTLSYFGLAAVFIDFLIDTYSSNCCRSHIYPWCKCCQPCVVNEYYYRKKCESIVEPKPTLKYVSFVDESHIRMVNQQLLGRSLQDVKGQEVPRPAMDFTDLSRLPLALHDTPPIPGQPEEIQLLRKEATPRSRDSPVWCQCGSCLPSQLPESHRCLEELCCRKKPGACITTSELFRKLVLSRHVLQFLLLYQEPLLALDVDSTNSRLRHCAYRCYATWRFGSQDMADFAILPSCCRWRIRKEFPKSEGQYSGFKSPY
rat P2X7, sequence (Q64663 whole entry): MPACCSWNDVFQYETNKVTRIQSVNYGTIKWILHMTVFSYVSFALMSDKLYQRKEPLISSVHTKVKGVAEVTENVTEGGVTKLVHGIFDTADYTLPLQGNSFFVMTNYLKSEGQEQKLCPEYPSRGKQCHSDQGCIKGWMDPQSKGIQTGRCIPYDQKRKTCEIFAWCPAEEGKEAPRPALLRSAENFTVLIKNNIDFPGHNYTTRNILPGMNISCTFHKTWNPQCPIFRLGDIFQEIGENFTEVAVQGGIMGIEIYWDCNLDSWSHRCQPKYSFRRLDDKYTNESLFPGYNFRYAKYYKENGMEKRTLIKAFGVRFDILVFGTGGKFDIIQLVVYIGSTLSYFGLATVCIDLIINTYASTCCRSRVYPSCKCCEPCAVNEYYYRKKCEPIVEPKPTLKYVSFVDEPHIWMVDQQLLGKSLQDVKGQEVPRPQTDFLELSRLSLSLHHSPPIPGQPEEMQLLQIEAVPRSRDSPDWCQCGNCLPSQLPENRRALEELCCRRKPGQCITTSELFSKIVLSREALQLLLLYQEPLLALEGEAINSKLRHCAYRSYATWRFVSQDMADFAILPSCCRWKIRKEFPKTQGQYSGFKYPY

Compound	IC50 (P2X7 [1]; Human Whole Blood IC50 (μM))	IC50 (rat P2X7)	Ki (P2X7 [2])	remaining activity at 10 µM (P2X7 [3])	IC50 (P2X7 [1]; [4])
Cc1nc(-c2cnccn2)c2c(n1)[C@H]1CCC[C@@H](C2)N1C(=O)c1ccc(Cl)c(F)c1Cl [Example 47, (2,4-dichloro-3-fluorophenyl)((6S,10R)-2-methyl-4-(pyrazin-2-yl)-5,6,7,8,9,10-hexahydro-6,10-epiminocycloocta[d]pyrimidin-11-yl)methanone]	0.04 µM	0.245 µM	0.0398 µM	-3.4%	
Cc1nc(-c2cnn(C)c2)c2c(n1)[C@H]1CCC[C@@H](C2)N1C(=O)c1ccnc(C(F)(F)F)c1F [Example 37, (3-fluoro-2-(trifluoromethyl)pyridin-4-yl)((6S,10R)-2-methyl-4-(1-methyl-1H-pyrazol-4-yl)-5,6,7,8,9,10-hexahydro-6,10-epiminocycloocta[d]pyrimidin-11-yl)methanone]		> 10 µM		13.3%	20.9 µM
Cc1nc(-c2ccn[nH]2)c2c(n1)[C@@H]1CCC[C@H](C2)N1C(=O)c1ccc(F)c(Cl)c1Cl [Example 4, (2,3-dichloro-4-fluorophenyl)((6R,10S)-2-methyl-4-(1H-pyrazol-5-yl)-5,6,7,8,9,10-hexahydro-6,10-epiminocycloocta[d]pyrimidin-11-yl)methanone]	1.36 µM	0.948 µM		25.4%	
Cc1nc(-c2ccn[nH]2)c2c(n1)[C@H]1CCC[C@@H](C2)N1C(=O)c1ccc(Cl)cc1Cl [Example 20, (2,4-dichlorophenyl)((6S,10R)-2-methyl-4-(1H-pyrazol-5-yl)-5,6,7,8,9,10-hexahydro-6,10-epiminocycloocta[d]pyrimidin-11-yl)methanone]	0.221 µM		0.12 µM	-9.9%	
Cc1nc(-c2ccn[nH]2)c2c(n1)[C@@H]1CCC[C@H](C2)N1C(=O)c1ccc(Cl)c(F)c1Cl [Example 10, (2,4-dichloro-3-fluorophenyl)((6R,10S)-2-methyl-4-(1H-pyrazol-5-yl)-5,6,7,8,9,10-hexahydro-6,10-epiminocycloocta[d]pyrimidin-11-yl)methanone]	0.459 µM		0.631 µM	22.4%	
Cc1nc(-c2ccn[nH]2)c2c(n1)[C@@H]1CCC[C@H](C2)N1C(=O)c1ccc(F)cc1Cl [Example 9, (2-chloro-4-fluorophenyl)((6R,10S)-2-methyl-4-(1H-pyrazol-5-yl)-5,6,7,8,9,10-hexahydro-6,10-epiminocycloocta[d]pyrimidin-11-yl)methanone]		> 10 µM		91.3%	2.96 µM
Cc1nc(-c2ccnn2C)c2c(n1)[C@H]1CCC[C@@H](C2)N1C(=O)c1ccnc(C(F)(F)F)c1Cl [Example 60, (3-chloro-2-(trifluoromethyl)pyridin-4-yl)((6S,10R)-2-methyl-4-(1-methyl-1H-pyrazol-5-yl)-5,6,7,8,9,10-hexahydro-6,10-epiminocycloocta[d]pyrimidin-11-yl)methanone]	1.98 µM	0.798 µM		21.4%	
Cc1nc(-c2cnn(C)c2)c2c(n1)[C@H]1CCC[C@@H](C2)N1C(=O)c1cccc(C(F)(F)F)c1C [Example 39, (2-methyl-3-(trifluoromethyl)phenyl)((6S,10R)-2-methyl-4-(1-methyl-1H-pyrazol-4-yl)-5,6,7,8,9,10-hexahydro-6,10-epiminocycloocta[d]pyrimidin-11-yl)methanone]	1.09 µM	> 10 µM		1%	
Cc1nc(-c2cnn(C)c2)c2c(n1)[C@H]1CCC[C@@H](C2)N1C(=O)c1cccc(Cl)c1Cl [Example 31, (2,3-dichlorophenyl)((6S,10R)-2-methyl-4-(1-methyl-1H-pyrazol-4-yl)-5,6,7,8,9,10-hexahydro-6,10-epiminocycloocta[d]pyrimidin-11-yl)methanone]	2.67 µM	> 10 µM		-0.9%	
Cc1nc(-c2cnn(C)c2)c2c(n1)[C@H]1CCC[C@@H](C2)N1C(=O)c1cccc(C(F)(F)F)c1F [Example 34, (2-fluoro-3-(trifluoromethyl)phenyl)((6S,10R)-2-methyl-4-(1-methyl-1H-pyrazol-4-yl)-5,6,7,8,9,10-hexahydro-6,10-epiminocycloocta[d]pyrimidin-11-yl)methanone]	8.59 µM	> 10 µM		3.3%	
Cc1nc(-c2cnn(C)c2)c2c(n1)[C@H]1CCC[C@@H](C2)N1C(=O)c1ccc(Cl)cc1F [Example 38, (4-chloro-2-fluorophenyl)((6S,10R)-2-methyl-4-(1-methyl-1H-pyrazol-4-yl)-5,6,7,8,9,10-hexahydro-6,10-epiminocycloocta[d]pyrimidin-11-yl)methanone]		> 10 µM		46.8%	> 10 µM
Cc1nc(-c2ccn[nH]2)c2c(n1)[C@H]1CCC[C@@H](C2)N1C(=O)c1ccc(Cl)c(F)c1Cl [Example 23, (2,4-dichloro-3-fluorophenyl)((6S,10R)-2-methyl-4-(1H-pyrazol-5-yl)-5,6,7,8,9,10-hexahydro-6,10-epiminocycloocta[d]pyrimidin-11-yl)methanone]	0.018 µM		0.0316 µM	-24.7%	
Cc1nc(-c2ccn[nH]2)c2c(n1)[C@@H]1CCC[C@H](C2)N1C(=O)c1ccnc(C(F)(F)F)c1Cl [Example 7, (3-chloro-2-(trifluoromethyl)pyridin-4-yl)((6R,10S)-2-methyl-4-(1H-pyrazol-5-yl)-5,6,7,8,9,10-hexahydro-6,10-epiminocycloocta[d]pyrimidin-11-yl)methanone]	2.35 µM	0.92 µM		20.5%	
Cc1nc(-c2cnn(C)c2)c2c(n1)[C@H]1CCC[C@@H](C2)N1C(=O)c1ccnc(C(F)(F)F)c1Cl [Example 32, (3-chloro-2-(trifluoromethyl)pyridin-4-yl)((6S,10R)-2-methyl-4-(1-methyl-1H-pyrazol-4-yl)-5,6,7,8,9,10-hexahydro-6,10-epiminocycloocta[d]pyrimidin-11-yl)methanone]	1.58 µM	> 10 µM		4.8%	
Cc1nc(-c2ccc(F)cc2)c2c(n1)[C@@H]1CCC[C@H](C2)N1C(=O)c1cccc(C(F)(F)F)c1Cl [Example 13, (2-chloro-3-(trifluoromethyl)phenyl)((6R,10S)-4-(4-fluorophenyl)-2-methyl-5,6,7,8,9,10-hexahydro-6,10-epiminocycloocta[d]pyrimidin-11-yl)methanone]	5.08 µM	0.0889 µM		22.2%	
Cc1nc(-c2cnn(C)c2)c2c(n1)[C@H]1CCC[C@@H](C2)N1C(=O)c1ccc(F)c(Cl)c1Cl [Example 33, (2,3-dichloro-4-fluorophenyl)((6S,10R)-2-methyl-4-(1-methyl-1H-pyrazol-4-yl)-5,6,7,8,9,10-hexahydro-6,10-epiminocycloocta[d]pyrimidin-11-yl)methanone]		> 10 µM		1.2%	1.34 µM
Cc1nc(-c2ccc(F)cc2)c2c(n1)[C@@H]1CCC[C@H](C2)N1C(=O)c1ccc(F)cc1Cl [Example 16, (2-chloro-4-fluorophenyl)((6R,10S)-4-(4-fluorophenyl)-2-methyl-5,6,7,8,9,10-hexahydro-6,10-epiminocycloocta[d]pyrimidin-11-yl)methanone]	7.38 µM	> 10 µM		84.8%	
